According to patent publication US8173631B2, “Cyclic amine compounds” (Daiichi Sankyo Company, Limited, priority 2008, dated 2012):

Molecular target: T1, human calcium-sensing receptor (CaSR) (Homo sapiens, UniProt P41180)
T1 construct: expressed in transfected cells
T1 sequence (P41180 20-1078): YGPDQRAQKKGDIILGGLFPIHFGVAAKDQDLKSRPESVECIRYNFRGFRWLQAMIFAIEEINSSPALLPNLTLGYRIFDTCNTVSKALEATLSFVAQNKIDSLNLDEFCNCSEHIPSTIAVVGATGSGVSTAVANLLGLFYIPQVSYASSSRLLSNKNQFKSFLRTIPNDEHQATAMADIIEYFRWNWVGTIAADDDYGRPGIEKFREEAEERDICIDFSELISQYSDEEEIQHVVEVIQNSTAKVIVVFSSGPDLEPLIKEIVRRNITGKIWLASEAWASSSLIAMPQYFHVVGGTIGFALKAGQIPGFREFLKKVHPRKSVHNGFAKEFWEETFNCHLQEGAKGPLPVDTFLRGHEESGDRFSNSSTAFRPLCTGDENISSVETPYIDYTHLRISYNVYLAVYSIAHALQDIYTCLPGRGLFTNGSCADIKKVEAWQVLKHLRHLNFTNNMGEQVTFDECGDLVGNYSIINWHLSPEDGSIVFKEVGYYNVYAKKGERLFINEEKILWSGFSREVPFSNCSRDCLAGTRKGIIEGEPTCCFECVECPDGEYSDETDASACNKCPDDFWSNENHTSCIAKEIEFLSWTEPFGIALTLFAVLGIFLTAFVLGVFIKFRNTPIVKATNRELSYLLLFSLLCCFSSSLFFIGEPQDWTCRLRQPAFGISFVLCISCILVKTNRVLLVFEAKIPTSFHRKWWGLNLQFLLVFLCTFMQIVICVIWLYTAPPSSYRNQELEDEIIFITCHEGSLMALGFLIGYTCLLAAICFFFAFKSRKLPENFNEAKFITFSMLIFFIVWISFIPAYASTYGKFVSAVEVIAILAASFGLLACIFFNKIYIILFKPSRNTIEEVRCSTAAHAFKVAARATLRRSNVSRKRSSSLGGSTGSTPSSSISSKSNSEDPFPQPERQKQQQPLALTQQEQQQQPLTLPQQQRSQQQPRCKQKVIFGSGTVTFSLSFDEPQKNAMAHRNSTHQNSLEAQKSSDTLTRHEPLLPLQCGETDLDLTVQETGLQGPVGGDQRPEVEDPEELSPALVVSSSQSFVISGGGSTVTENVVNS
Assay: Inhibitory activity on calcium-sensing receptor (CaSR), intracellular calcium increase as indicator (FLIPR, CHO/hCaSR)
Format: cell-based
Conditions: CHO cells stably expressing human CaSR; inhibition of intracellular Ca increase induced by extracellular CaCl2
Experimental: Evaluation of inhibitory activity on calcium-sensing receptor (CaSR) using intracellular calcium increase as an indicator
The preparation which is prepared by adding CHO/hCaSR to F12 medium (manufactured by Invitrogen) containing 10% fetal bovine serum to have 2×10^5 cells/mL was applied to a 384-well in an amount of 50 μL/well, and then incubated overnight in a CO2 incubator. The culture supernatant was completely removed, the assay buffer (20 mM HEPES, HBSS (Ca and Mg free) containing 2.5 mM probenecid, pH 7.4) containing Calcium 3 (manufactured by Molecular Devices), i.e., a fluorescent intracellular calcium indicator, was added thereto in an amount of 25 μL/well, and the mixture was maintained for 1 hour in a CO2 incubator. Meanwhile, Calcium 3 was prepared according to the protocol enclosed in FLIPR Calcium 3 Assay Kit (manufactured by Molecular Devices). After maintaining it for 1 hour, a solution in which the test compound is prepared to have 2.1 to 20,000 nM (final concentration of 1.05 to 10,000 nM) by an assay buffer was added thereto in an amount of 25 μL/well, and maintained for 15 minutes in a CO2 incubator. Then, the CaCl2 solution prepared to have […] by using the assay buffer was added in an amount of 25 μL/well, and the resulting intracellular Ca increase (i.e., fluorescence intensity) was measured over time using a fluorescence imaging plate reader (FLIPR, manufactured by Molecular Devices). From the data obtained, the difference between the fluorescence intensity before the addition of CaCl2 solution and the maximum fluorescence intensity after the addition of CaCl2 solution was calculated, and the 50% inhibition concentration (IC50) of the test compound was obtained.

| Structure (SMILES) | IC50 [µM] |
| --- | --- |
| CCC[C@@H](OC[C@H](O)CN1CCC[C@H]1Cc1ccc(C)c(F)c1)c1ccc(C)cc1CCC(=O)O [Example 64] | ≤ 3.29 |
| CC[C@@H](OC[C@H](O)CN1CCC[C@H]1Cc1ccc(C)c(F)c1)c1cc(F)c(C)cc1CCC(=O)O [Example 69] | ≤ 3.27 |
| CCOc1cccc([C@@H](C)OC[C@H](O)CN2CCC[C@H]2Cc2ccc(C)c(F)c2)c1CCC(=O)O [Example 71] | ≤ 3.28 |
| Cc1ccc(C[C@@H]2CCCN2C[C@@H](O)CO[C@H](C)c2ccccc2CCCCCC(=O)O)cc1F [Example 76] | ≤ 3.29 |
| Cc1ccc(C[C@@H]2CCCN2C[C@@H](O)CO[C@H](C)c2ccc(Cl)cc2CCC(=O)O)cc1F [Example 78] | ≤ 3.35 |
| Cc1ccc(C[C@@H]2CCCN2C[C@@H](O)CO[C@H](C)c2cc(Cl)ccc2CCC(=O)O)cc1F [Example 79] | ≤ 3.35 |
| Cc1ccc(C[C@@H]2CCCN2C[C@@H](O)CO[C@H](C)c2cccc(Cl)c2CCC(=O)O)cc1F [Example 80] | ≤ 3.35 |
| C[C@@H](OC[C@H](O)CN1CCC[C@H]1Cc1ccc(F)c(Cl)c1)c1ccccc1CCC(=O)O [Example 83] | ≤ 3.45 |
| Cc1ccc(C[C@@H]2CCCN2C[C@@H](O)CO[C@H](C)c2ccccc2CCC(=O)O)cc1Cl [Example 84] | ≤ 3.48 |
| C[C@@H](OC[C@H](O)CN1CCC[C@H]1Cc1ccc(Cl)c(Cl)c1)c1ccccc1CCC(=O)O [Example 88] | ≤ 3.33 |
| CCc1cc(C[C@@H]2CCCN2C[C@@H](O)CO[C@H](C)c2ccccc2CCC(=O)O)ccc1Cl [Example 89] | ≤ 3.38 |
| Cc1ccc(C[C@@H]2CCCN2C[C@@H](O)CO[C@H](C)c2cccc(F)c2CCC(=O)O)cc1Cl [Example 90] | ≤ 3.35 |
| C[C@@H](OC[C@H](O)CN1CCC[C@H]1Cc1ccc(Cl)c(F)c1)c1cccc(F)c1CCC(=O)O [Example 91] | ≤ 3.32 |
| C[C@@H](OC[C@H](O)CN1CCC[C@H]1Cc1ccc(Cl)c(Cl)c1)c1cccc(F)c1CCC(=O)O [Example 92] | ≤ 3.21 |
| CCc1cc(C[C@@H]2CCCN2C[C@@H](O)CO[C@H](C)c2cccc(F)c2CCC(=O)O)ccc1Cl [Example 93] | ≤ 3.25 |
| CC[C@@H](OC[C@H](O)CN1CCC[C@H]1Cc1ccc(C)c(F)c1)c1cc(Cl)ccc1CCC(=O)O [Example 94] | ≤ 3.25 |
| CC[C@@H](OC[C@H](O)CN1CCC[C@H]1Cc1ccc(C)c(F)c1)c1ccc(Cl)cc1CCC(=O)O [Example 95] | ≤ 3.25 |
| C[C@@H](OC[C@H](O)CN1CCC[C@H]1Cc1ccc(Cl)c(Cl)c1)c1cc(F)ccc1CCC(=O)O [Example 96] | ≤ 3.21 |
| Cc1ccc([C@@H](C)OC[C@H](O)CN2CCC[C@H]2Cc2ccc(Cl)c(Cl)c2)c(CCC(=O)O)c1 [Example 97] | ≤ 3.24 |
| CCc1cc(C[C@@H]2CCCN2C[C@@H](O)CO[C@H](C)c2ccc(C)cc2CCC(=O)O)ccc1Cl [Example 98] | ≤ 3.28 |
| CCc1cc(C[C@@H]2CCCN2C[C@@H](O)CO[C@H](C)c2cc(F)ccc2CCC(=O)O)ccc1Cl [Example 99] | ≤ 3.25 |
| CC[C@@H](OC[C@H](O)CN1CCC[C@H]1Cc1ccc(C)c(F)c1)c1cccc(Cl)c1CCC(=O)O [Example 112] | ≤ 3.25 |

Further lines, results first:

| IC50 [µM] | Structure (SMILES) |
| --- | --- |
| ≤ 3.19 | CCC[C@@H](OC[C@H](O)CN1CCC[C@H]1Cc1ccc(C)c(F)c1)c1cccc(OC)c1CCC(=O)O [Example 65] |
| ≤ 3.09 | CC[C@@H](OC[C@H](O)CN1CCC[C@H]1Cc1ccc(C)c(F)c1)c1cc(F)c(C)cc1CCCCC(=O)O [Example 70] |
| ≤ 3.1 | CCOc1cccc([C@@H](C)OC[C@H](O)CN2CCC[C@H]2Cc2ccc(C)c(F)c2)c1CCCCC(=O)O [Example 72] |
| ≤ 3.19 | Cc1ccc(C[C@@H]2CCCN2C[C@@H](O)CO[C@H](C)c2cccc(OC(C)C)c2CCC(=O)O)cc1F [Example 73] |
| ≤ 3.02 | Cc1ccc(C[C@@H]2CCCN2C[C@@H](O)CO[C@H](C)c2cccc(OC(C)C)c2CCCCC(=O)O)cc1F [Example 74] |
| ≤ 3.14 | Cc1ccc(C[C@@H]2CCCN2C[C@@H](O)CO[C@H](C)c2cccc(OC(F)F)c2CCC(=O)O)cc1F [Example 75] |
| ≤ 3.2 | Cc1ccc(C[C@@H]2CCCN2C[C@@H](O)CO[C@H](C)c2ccccc2CCCCCCC(=O)O)cc1F [Example 77] |
| ≤ 3.16 | Cc1ccc(C[C@@H]2CCCN2C[C@@H](O)CO[C@H](C)c2ccc(Cl)cc2CCCCC(=O)O)cc1F [Example 81] |
| ≤ 3.03 | CC[C@@H](OC[C@H](O)CN1CCC[C@H]1Cc1ccc(Cl)c(Cl)c1)c1ccc(Cl)cc1CCC(=O)O [Example 100] |
| ≤ 3.06 | CCc1cc(C[C@@H]2CCCN2C[C@@H](O)CO[C@H](CC)c2ccc(Cl)cc2CCC(=O)O)ccc1Cl [Example 101] |
| ≤ 3.15 | CC[C@@H](OC[C@H](O)CN1CCC[C@H]1Cc1ccc(Cl)c(Cl)c1)c1ccc(C)cc1CCC(=O)O [Example 102] |
| ≤ 3.19 | CCc1cc(C[C@@H]2CCCN2C[C@@H](O)CO[C@H](CC)c2ccc(C)cc2CCC(=O)O)ccc1Cl [Example 103] |
| ≤ 3.12 | CC[C@@H](OC[C@H](O)CN1CCC[C@H]1Cc1ccc(Cl)c(Cl)c1)c1cc(F)ccc1CCC(=O)O [Example 104] |
| ≤ 3.16 | CCc1cc(C[C@@H]2CCCN2C[C@@H](O)CO[C@H](CC)c2cc(F)ccc2CCC(=O)O)ccc1Cl [Example 105] |
| ≤ 3.1 | C[C@@H](OC[C@H](O)CN1CCC[C@H]1Cc1ccc(Cl)c(Cl)c1)c1cc(F)cc(F)c1CCC(=O)O [Example 106] |
| ≤ 3.14 | CCc1cc(C[C@@H]2CCCN2C[C@@H](O)CO[C@H](C)c2cc(F)cc(F)c2CCC(=O)O)ccc1Cl [Example 107] |
| ≤ 3.12 | CC[C@@H](OC[C@H](O)CN1CCC[C@H]1Cc1ccc(Cl)c(Cl)c1)c1cccc(F)c1CCC(=O)O [Example 108] |
| ≤ 3.16 | CCc1cc(C[C@@H]2CCCN2C[C@@H](O)CO[C@H](CC)c2cccc(F)c2CCC(=O)O)ccc1Cl [Example 109] |
| ≤ 3.02 | CC[C@@H](OC[C@H](O)CN1CCC[C@H]1Cc1ccc(Cl)c(Cl)c1)c1cc(F)cc(F)c1CCC(=O)O [Example 110] |
| ≤ 3.05 | CCc1cc(C[C@@H]2CCCN2C[C@@H](O)CO[C@H](CC)c2cc(F)cc(F)c2CCC(=O)O)ccc1Cl [Example 111] |
| ≤ 3.03 | CC[C@@H](OC[C@H](O)CN1CCC[C@H]1Cc1ccc(Cl)c(Cl)c1)c1cccc(Cl)c1CCC(=O)O [Example 113] |
| ≤ 3.06 | CCc1cc(C[C@@H]2CCCN2C[C@@H](O)CO[C@H](CC)c2cccc(Cl)c2CCC(=O)O)ccc1Cl [Example 114] |
| ≤ 3.05 | CC[C@@H](OC[C@H](O)CN1CCC[C@H]1Cc1ccc(Cl)c(Cl)c1)c1cccc(OC)c1CCC(=O)O [Example 115] |
| ≤ 3.09 | CCc1cc(C[C@@H]2CCCN2C[C@@H](O)CO[C@H](CC)c2cccc(OC)c2CCC(=O)O)ccc1Cl [Example 116] |
| ≤ 3.02 | CC[C@@H](OC[C@H](O)CN1CCC[C@H]1Cc1ccc(Cl)c(Cl)c1)c1cc(F)c(F)cc1CCC(=O)O [Example 117] |
| ≤ 3.04 | CC[C@@H](OC[C@H](O)CN1CCC[C@H]1Cc1ccc(Cl)c(Cl)c1)c1cc(F)c(C)cc1CCC(=O)O [Example 118] |
| ≤ 3.08 | CCc1cc(C[C@@H]2CCCN2C[C@@H](O)CO[C@H](CC)c2cc(F)c(C)cc2CCC(=O)O)ccc1Cl [Example 119] |
| ≤ 3.15 | CC[C@@H](OC[C@H](O)CN1CCC[C@H]1Cc1ccc(Cl)c(Cl)c1)c1cccc(C)c1CCC(=O)O [Example 120] |
| ≤ 3.05 | CCc1cc(C[C@@H]2CCCN2C[C@@H](O)CO[C@H](CC)c2cc(F)c(F)cc2CCC(=O)O)ccc1Cl [Example 121] |
